From PubChem BioAssay AID330 (DTP/NCI, 2004)
“And” between values parts separate entries of the source, which are not always exact repeats. Identical values can stand only once. Inconclusive results and toxic doses are left out. How the source made its calls: active means survival T/C of 150% or more; inactive means T/C below 125% in these data.

Test system: P388 leukemia ip, CD2F1 mice, survival T/C
Assay: NCI In Vivo Anticancer Drug Screen. Data for tumor model P388 Leukemia (intraperitoneal) in CD2F1 (CDF1) mice
Details: endpoint: median survival time, higher = longer survival
Method in brief: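 Mice carrying the transplanted tumor received test compound or vehicle. Survival was recorded in each group, and the value is the treated-group measurement divided by that of the vehicle-treated control group.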

[1] = dose: 60.0 mg/kg/injection, schedule: Q01DX005 (ip), vehicle: saline with Tween-80
[2] = dose: 120.0 mg/kg/injection, schedule: Q01DX005 (ip), vehicle: saline with Tween-80
[3] = dose: 240.0 mg/kg/injection, schedule: Q01DX005 (ip), vehicle: saline with Tween-80
[4] = dose: 200.0 mg/kg/injection, schedule: Q01DX005 (ip), vehicle: saline with Tween-80
[5] = dose: 100.0 mg/kg/injection, schedule: Q01DX001 (ip), vehicle: saline with Tween-80
[6] = dose: 200.0 mg/kg/injection, schedule: Q01DX001 (ip), vehicle: saline with Tween-80
[7] = dose: 60.0 mg/kg/injection, schedule: Q01DX005 (ip), vehicle: Klucel (hydroxypropylcellulose) (HPC)
[8] = dose: 120.0 mg/kg/injection, schedule: Q01DX005 (ip), vehicle: Klucel (hydroxypropylcellulose) (HPC)
[9] = dose: 240.0 mg/kg/injection, schedule: Q01DX005 (ip), vehicle: Klucel (hydroxypropylcellulose) (HPC)
[10] = dose: 50.0 mg/kg/injection, schedule: Q01DX005 (ip), vehicle: Klucel (hydroxypropylcellulose) (HPC)
[11] = dose: 100.0 mg/kg/injection, schedule: Q01DX005 (ip), vehicle: Klucel (hydroxypropylcellulose) (HPC)
[12] = dose: 200.0 mg/kg/injection, schedule: Q01DX009 (ip), vehicle: saline
[13] = dose: 50.0 mg/kg/injection, schedule: Q01DX009 (ip), vehicle: Klucel (hydroxypropylcellulose) (HPC)
[14] = dose: 100.0 mg/kg/injection, schedule: Q01DX009 (ip), vehicle: Klucel (hydroxypropylcellulose) (HPC)
[15] = dose: 200.0 mg/kg/injection, schedule: Q01DX009 (ip), vehicle: Klucel (hydroxypropylcellulose) (HPC)
[16] = dose: 25.0 mg/kg/injection, schedule: Q01DX009 (ip), vehicle: saline with Tween-80
[17] = dose: 50.0 mg/kg/injection, schedule: Q01DX009 (ip), vehicle: saline with Tween-80

Measured: T/C

Cc1nc2c(o1)CCCC2
inactive: [1] 95 % of control | [2] 90 % of control | [3] 99 % of control

Cc1ccccc1NC(=O)OCCCl
inactive: [1] 100 % of control | [2] 100 % of control | [3] 97 % of control

N#Cc1c(-c2ccccc2)nc2n1CCS2
inactive: dose: 100.0 mg/kg/injection, schedule: Q01DX001 (ip), vehicle: Klucel (hydroxypropylcellulose) (HPC) 102 % of control | dose: 200.0 mg/kg/injection, schedule: Q01DX001 (ip), vehicle: Klucel (hydroxypropylcellulose) (HPC) 100 % of control | dose: 400.0 mg/kg/injection, schedule: Q01DX001 (ip), vehicle: Klucel (hydroxypropylcellulose) (HPC) 100 % of control

Cc1ccc(-n2c(=O)[nH]c3ccccc3c2=O)cc1[N+](=O)[O-]
inactive: dose: 6.25 mg/kg/injection, schedule: Q01DX005 (ip), vehicle: saline with Tween-80 101 % of control | dose: 12.5 mg/kg/injection, schedule: Q01DX005 (ip), vehicle: saline with Tween-80 97 % of control | [4] 90 % of control

O=C(c1cccnc1)N(Cc1ccccc1)C(=O)c1cccnc1
inactive: dose: 25.0 mg/kg/injection, schedule: Q01DX001 (ip), vehicle: saline with Tween-80 99 % of control | dose: 50.0 mg/kg/injection, schedule: Q01DX001 (ip), vehicle: saline with Tween-80 106 % of control | [5] 100 % of control | [6] 106 % of control

COC1(OC)C(c2ccccc2)C(C#N)(C#N)C1(OC)OC (stereo not given)
inactive: [7] 102 % of control | [8] 100 % of control | [9] 99 % of control

O=C1N(Cl)C(=O)C2(c3ccccc3-c3ccccc32)N1Cl
inactive: [10] 100 % of control | [11] 108 % of control

CCCCCCCCCCCCCCCc1cccc(OC)c1C(=O)OC
inactive: dose: 20.0 mg/kg/injection, schedule: Q01DX009 (ip), vehicle: saline 109 % of control | dose: 40.0 mg/kg/injection, schedule: Q01DX009 (ip), vehicle: saline 106 % of control | dose: 80.0 mg/kg/injection, schedule: Q01DX009 (ip), vehicle: saline 104 % of control

NC(Cc1c(Br)[nH]c2ccccc12)C(=O)O (stereo not given)
inactive: dose: 50.0 mg/kg/injection, schedule: Q01DX005 (ip), vehicle: saline with Tween-80 98 % of control | dose: 100.0 mg/kg/injection, schedule: Q01DX005 (ip), vehicle: saline with Tween-80 103 % of control | [4] 104 % of control

CS(C)(=O)=NS(=O)(=O)c1ccc([N+](=O)[O-])cc1
inactive: dose: 100.0 mg/kg/injection, schedule: Q04DX002 (ip), vehicle: Klucel (hydroxypropylcellulose) (HPC) 100 % of control | dose: 200.0 mg/kg/injection, schedule: Q04DX002 (ip), vehicle: Klucel (hydroxypropylcellulose) (HPC) 95 % of control | dose: 400.0 mg/kg/injection, schedule: Q04DX002 (ip), vehicle: Klucel (hydroxypropylcellulose) (HPC) 96 % of control

CN=NNc1ccc(C)cc1
inactive: dose: 12.5 mg/kg/injection, schedule: Q01DX009 (ip), vehicle: distilled water + Tween-80 96 % of control and 97 % of control | dose: 25.0 mg/kg/injection, schedule: Q01DX009 (ip), vehicle: distilled water + Tween-80 100 % of control | dose: 50.0 mg/kg/injection, schedule: Q01DX009 (ip), vehicle: distilled water + Tween-80 100 % of control and 124 % of control | dose: 100.0 mg/kg/injection, schedule: Q01DX009 (ip), vehicle: distilled water + Tween-80 123 % of control

O=C(NC(c1ccccc1)N1CCOCC1)c1ccccc1 (stereo not given)
inactive: dose: 50.0 mg/kg/injection, schedule: Q01DX005 (ip), vehicle: Klucel + Tween-80 108 % of control | dose: 100.0 mg/kg/injection, schedule: Q01DX005 (ip), vehicle: Klucel + Tween-80 112 % of control | dose: 200.0 mg/kg/injection, schedule: Q01DX005 (ip), vehicle: Klucel + Tween-80 114 % of control

CCC1(c2ccccc2)N=C1N(C)C (stereo not given)
inactive: dose: 6.25 mg/kg/injection, schedule: Q01DX009 (ip), vehicle: saline 106 % of control and 92 % of control | dose: 12.5 mg/kg/injection, schedule: Q01DX009 (ip), vehicle: saline 109 % of control and 120 % of control | dose: 25.0 mg/kg/injection, schedule: Q01DX009 (ip), vehicle: saline 116 % of control and 118 % of control | [12] 93 % of control

CCC(c1ccc(OC)cc1)C(NC(=S)Nc1ccc(Br)cc1)c1ccc(OC)cc1 (stereo not given)
inactive: [5] 96 % of control | [6] 99 % of control | dose: 400.0 mg/kg/injection, schedule: Q01DX001 (ip), vehicle: saline with Tween-80 93 % of control

O=C1CC(C(=O)O)N(C(=O)Oc2ccccc2)C(C(=O)O)C1 (stereo not given)
inactive: dose: 4.38 mg/kg/injection, schedule: Q01DX005 (ip), vehicle: Klucel (hydroxypropylcellulose) (HPC) 98 % of control | dose: 8.75 mg/kg/injection, schedule: Q01DX005 (ip), vehicle: Klucel (hydroxypropylcellulose) (HPC) 105 % of control | dose: 17.5 mg/kg/injection, schedule: Q01DX005 (ip), vehicle: Klucel (hydroxypropylcellulose) (HPC) 101 % of control

C1CC1c1nn[nH]n1
inactive: [13] 109 % of control | [14] 110 % of control | [15] 107 % of control

CCCCN(CCCC)CCCNC(c1ccc(N(C)C)cc1)c1ccc(N(C)C)cc1
inactive: dose: 25.0 mg/kg/injection, schedule: Q01DX005 (ip), vehicle: Klucel (hydroxypropylcellulose) (HPC) 98 % of control | [10] 104 % of control | [11] 98 % of control | dose: 200.0 mg/kg/injection, schedule: Q01DX005 (ip), vehicle: Klucel (hydroxypropylcellulose) (HPC) 102 % of control

COc1cc(NC(C)CCCN)c2nc(C)ccc2c1Oc1ccc(F)cc1 (stereo not given)
inactive: dose: 12.5 mg/kg/injection, schedule: Q01DX009 (ip), vehicle: water 109 % of control | dose: 25.0 mg/kg/injection, schedule: Q01DX009 (ip), vehicle: water 92 % of control

Oc1cccnc1Cl
inactive: [16] 110 % of control | [17] 114 % of control | dose: 100.0 mg/kg/injection, schedule: Q01DX009 (ip), vehicle: saline with Tween-80 114 % of control | dose: 100.0 mg/kg/injection, schedule: Q01DX009 (ip), vehicle: saline 102 % of control | dose: 200.0 mg/kg/injection, schedule: Q01DX009 (ip), vehicle: saline with Tween-80 119 % of control | [12] 101 % of control | dose: 400.0 mg/kg/injection, schedule: Q01DX009 (ip), vehicle: saline 108 % of control

CCN=P1(N(C(C)C)C(C)C)N(CC)N=NN1C(C)(C)C (stereo not given)
inactive: dose: 1.56 mg/kg/injection, schedule: Q01DX005 (ip), vehicle: Klucel (hydroxypropylcellulose) (HPC) 102 % of control | dose: 3.12 mg/kg/injection, schedule: Q01DX005 (ip), vehicle: Klucel (hydroxypropylcellulose) (HPC) 104 % of control | dose: 6.25 mg/kg/injection, schedule: Q01DX005 (ip), vehicle: Klucel (hydroxypropylcellulose) (HPC) 100 % of control | dose: 12.5 mg/kg/injection, schedule: Q01DX005 (ip), vehicle: Klucel (hydroxypropylcellulose) (HPC) 104 % of control | [10] 111 % of control

O=C1CSC(C2CCCCC2)N1c1nncs1 (stereo not given)
inactive: dose: 30.0 mg/kg/injection, schedule: Q01DX005 (ip), vehicle: Klucel (hydroxypropylcellulose) (HPC) 100 % of control | [7] 100 % of control | [8] 101 % of control | [9] 107 % of control

C[CH2][Pb]([Br])([CH2]C)[CH2]C
inactive: dose: 3.12 mg/kg/injection, schedule: Q01DX009 (ip), vehicle: saline with Tween-80 105 % of control and 97 % of control | dose: 6.25 mg/kg/injection, schedule: Q01DX009 (ip), vehicle: saline with Tween-80 103 % of control and 107 % of control | dose: 12.5 mg/kg/injection, schedule: Q01DX009 (ip), vehicle: saline with Tween-80 113 % of control and 114 % of control | [16] 106 % of control | [17] 107 % of control

C[n+]1cccc2c1C(=O)C(=O)c1c-2ccc[n+]1C
inactive: dose: 100.0 mg/kg/injection, schedule: Q04DX002 (ip), vehicle: saline with Tween-80 120 % of control | dose: 200.0 mg/kg/injection, schedule: Q04DX002 (ip), vehicle: saline with Tween-80 105 % of control

Cc1ccc(N2C(=O)CC3(CCCCC3)C2=O)c(C)c1
inactive: [13] 105 % of control | [14] 109 % of control | [15] 103 % of control

CCOC(=O)C1Nc2ccc(Br)cc2C(C(=O)OCC)N1c1ccc(Br)cc1 (stereo not given)
inactive: [13] 102 % of control | [14] 102 % of control | [15] 94 % of control
